Measured values published in US7202085B2, “Control of gene expression in eukaryotic cells” (Calgene LLC, priority 1999, dated 2007).
Where “and” joins values, the source holds several entries; their conditions need not be identical. Identical values can stand only once.

Tested on: VP16-TraR
Assay: Transient GUS reporter assay in carrot protoplasts with VP16-TraR effector and tra box reporter
Format: cell-based, Agrobacterium tumefaciens
Settings: Table 8: TraA8(4X) +TraR
Text: Carrot protoplasts were transfected with the TraA8 (4×)-GUS reporter construct with the 35S-VP16-TraR activator gene and tested for GUS induction by application of wild type AHL and the various AHL analogs described in Example 8.

## CCCCCCC(C(C)=O)C(=O)N[C@@H](CCO)C(=O)O (stereo partly drawn) [compound 26, N-(α-Hexyl-b-ketobutanoyl)-(S)-homoserine]
5 μM
  1, 2, 3 (replicate GUS activities at the lower concentration): 382.0 and 407.6 and 373.1
12.5 μM
  4, 5, 6 (replicate GUS activities at the higher concentration): 2145.8 and 1764.6 and 1527.0
25 μM
  1, 2, 3 (replicate GUS activities at the lower concentration): 1658.7 and 1300.7 and 1586.6
75 μM
  4, 5, 6 (replicate GUS activities at the higher concentration): 2585.3 and 3238.5 and 2815.8
